# Patent US9512168B2, “Compound, composition and method for treating and/or ameoliorating kidney disease” (Trineo Biotechnology Co. LTD., priority 2014, dated 2016)
# Key:
# Blb/c mice = assay: Lipopolysaccharide (LPS) induced in vivo kidney inflammation, urine protein; details: oral 100 mg/Kg; LPS 2.5 mg/Kg/day i.p. for 5 days; urine on day 5 and day 10; FIG. 3
# Description: Blb/c mice were kept in pathogen-free environment under 12:12 light-dark cycle with food (laboratory rodent diet 5001 purchased from PMI Nutrition International Inc. MO, USA) and water (i.e., distilled water) provided ad libitum, ambient temperature and relative humidity were respectively set at 22±3° C. and 50±20%. All procedures involving animal studies of the present disclose e comply with the “Guideline for the Care and Use of Laboratory Animals” issued by The Chinese-Taipei Society of Laboratory Animal Sciences.
# In this example, to evaluate the therapeutic or prophylactic function of the composition of example 1.2, animals were first injected intraperitoneally with lipopolysaccharide (LPS) to induce in vivo kidney inflammation before being subject to the treatment of the composition of example 1.2.
# Blb/c mice (6 weeks old) were randomly assigned to two groups, and injected intraperitoneally with lipopolysaccharide (LPS, 2.5 mg/Kg/day) for 5 consecutive days so as to induce kidney inflammation. […] Urine samples were respectively collected on the fifth and the tenth day after the experiment started, and analyzed for the level of urine protein therein. […]
# MDCK cells = assay: Cisplatin induced in vitro kidney cell apoptosis (mitochondria membrane potential, DiOC6 staining); assay type: cell-based, canine; details: FIG. 1A
# Description: Madin-Darby canine kidney (MDCK) cells (1.5×10^5 cells/mL) were cultured and maintained in Dulbecco's modified Eagle medium (DMEM) supplemented with 10% fetal bovine serum (FBS), 100 units/mL penicillin, […] streptomycin, 2 mM L-glutamine, non-essential amino acids and sodium pyruvate, and maintained in 5% CO2 at 37° C. until reached 80% confluence, then were subject to cell passages.
# MDCK cells were cultured in according to procedures described in the “Materials and Methods” section. To start the experiment, MDCK cells were first incubated with 50 μM cisplatin for 4 hrs, then various concentrations of the compound of formula (I) ([…] or 100 μg/mL) or the YKII-10 composition of example 1.2 (25 to 100 μg/mL) were given to cisplatin-treated cells and further incubated for another 24 hrs. Mitochondria membrane potentials were then measured by staining the live cells with fluorescent dyes (e.g., 50 nM DiOC6), in which 50 nM DiOC6 were added to cells and incubated at 37° C. for 30 min. The cells were then washed twice with phosphate buffer solution before subjecting to microscopy analysis using the inverted fluorescent microscope. […] Results are illustrated in FIGS. 1A and 1B.
smiles,measurement,setting,value
C[C@H](CCC(=O)O)[C@H]1C[C@H](O)[C@@]2(C)C3=C(C(=O)C[C@]12C)[C@@]1(C)CCC(=O)C(C)(C)[C@@H]1C[C@@H]3O [compound of formula (I)],urine protein level,Blb/c mice,effective in reducing
same,reversal of cisplatin-induced apoptosis of MDCK cell,MDCK cells; 50 μg/mL or 100 μg/mL for 24 hrs after 50 μM cisplatin for 4 hrs,capable of reversing
same,recovery on the membrane potential,"MDCK cells; 100 μg/mL for 24 hrs after 50 μM cisplatin for 4 hrs, MDCK cells",about 80%
